# From ChEMBL document CHEMBL5316338, “Discovery of Novel PTP1B Inhibitors with Once-Weekly Therapeutic Potential for Type 2 Diabetes: Design, Synthesis, and In Vitro and In Vivo Investigations of BimBH3 Peptide Analogues” (J Med Chem, 2023)
# Activity calls are given as the source filed them. No cut-off for these calls is given here. Square brackets hold non-standard residues; d marks the D form. Peptide text beside a SMILES is read from it. * marks the point of attachment. ξ: configuration not given here. Stearoyl = CCCCCCCCCCCCCCCCCC(=O)*; Palmitoyl = CCCCCCCCCCCCCCCC(=O)*; ξR = N=C(N)NCCCC(N)C(=O)O
# What was measured:
# [1] = target: T1, Tyrosine-protein phosphatase non-receptor type 1 (Homo sapiens) (UniProt P18031); experiment: Inhibition of N-terminal His tagged recombinant human PTP1B expressed in Escherichia coli using pNPP as substrate assessed as substrate hydrolysis at 40 umol/L relative to control; conditions: dose 40.0 µmol/L
# T1 sequence (whole entry): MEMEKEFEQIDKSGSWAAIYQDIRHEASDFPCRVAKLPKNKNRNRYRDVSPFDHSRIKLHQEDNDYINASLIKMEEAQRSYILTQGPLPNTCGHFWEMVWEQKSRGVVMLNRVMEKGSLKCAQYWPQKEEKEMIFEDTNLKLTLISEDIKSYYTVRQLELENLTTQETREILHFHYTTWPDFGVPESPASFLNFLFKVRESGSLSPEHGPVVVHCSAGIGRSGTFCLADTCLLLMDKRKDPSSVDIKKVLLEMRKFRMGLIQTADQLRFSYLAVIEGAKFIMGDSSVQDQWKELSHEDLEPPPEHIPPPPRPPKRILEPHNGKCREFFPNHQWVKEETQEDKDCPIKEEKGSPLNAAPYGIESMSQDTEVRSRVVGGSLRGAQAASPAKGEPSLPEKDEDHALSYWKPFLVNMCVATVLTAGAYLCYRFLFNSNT
# [2] = target: T2, Tyrosine-protein phosphatase non-receptor type 1 (Homo sapiens, UniProt P18031); experiment: Inhibition of N-terminal His tagged recombinant human PTP1B expressed in Escherichia coli using pNPP as substrate assessed as substrate hydrolysis
# T2 sequence (P18031 whole entry): T1 sequence (whole entry)
# Proteinase K = experiment: Stability of compound assessed as Proteinase K (unknown origin) mediated compound degradation by measuring half-life by HPLC analysis; type: ADME
# Pepsin = experiment: Stability of compound assessed as Pepsin (unknown origin) mediated compound degradation by measuring half-life by HPLC analysis; type: ADME; conditions: human
# chymotrypsin [3] = target: chymotrypsin (Homo sapiens, UniProt P17538+P40313+Q6GPI1+Q99895); experiment: Stability of compound assessed as chymotrypsin (unknown origin) mediated compound degradation by measuring half-life by RP-HPLC analysis; type: ADME, protein assay
# carboxypeptidase A = target: T3, carboxypeptidase A (Homo sapiens, UniProt P15085); experiment: Stability of compound assessed as carboxypeptidase A (unknown origin) mediated compound degradation by measuring half-life by RP-HPLC analysis; type: ADME
# T3 sequence (P15085 whole entry): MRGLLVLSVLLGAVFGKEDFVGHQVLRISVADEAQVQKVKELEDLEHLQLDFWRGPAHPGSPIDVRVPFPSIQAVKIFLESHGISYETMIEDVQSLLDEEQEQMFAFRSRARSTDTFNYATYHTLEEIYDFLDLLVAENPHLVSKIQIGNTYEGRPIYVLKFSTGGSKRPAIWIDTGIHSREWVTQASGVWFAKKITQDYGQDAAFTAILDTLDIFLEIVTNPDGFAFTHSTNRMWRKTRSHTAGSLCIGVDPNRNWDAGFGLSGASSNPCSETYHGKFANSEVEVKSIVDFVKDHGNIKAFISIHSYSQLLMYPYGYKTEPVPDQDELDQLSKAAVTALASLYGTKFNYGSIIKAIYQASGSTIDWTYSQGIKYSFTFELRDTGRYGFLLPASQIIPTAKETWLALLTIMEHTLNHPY
# [4] = Stability of compound assessed as Proteinase K (unknown origin) mediated compound degradation by measuring fold change of half-life by HPLC analysis relative to BimBH312-mer peptide; type: ADME
# [5] = Stability of compound assessed as Pepsin (unknown origin) mediated compound degradation by measuring fold change of half-life by HPLC analysis relative to BimBH312-mer peptide; type: ADME; conditions: human
# Chymotrypsin [6] = target: Chymotrypsin (Homo sapiens, UniProt Q99895+P17538+P40313+Q6GPI1); experiment: Stability of compound assessed as chymotrypsin (unknown origin) mediated compound degradation by measuring fold change of half-life by RP-HPLC analysis relative to BimBH312-mer peptide; type: ADME, protein assay
# Carboxypeptidase A1 = target: T4, Carboxypeptidase A1 (Homo sapiens, UniProt P15085); experiment: Stability of compound assessed as carboxypeptidase A (unknown origin) mediated compound degradation by measuring fold change of half-life by RP-HPLC analysis relative to BimBH312-mer peptide; type: ADME
# T4 sequence (P15085 whole entry): T3 sequence (P15085 whole entry)
# [7] = target: T5, Tyrosine-protein phosphatase non-receptor type 2 (Homo sapiens, UniProt P17706); experiment: Inhibition of recombinant human TC-PTP (1 to 314 residues) expressed in baculovirus infected insect cells using pNPP as substrate assessed as substrate hydrolysis; design: species or system Insect cell
# T5 sequence (P17706 whole entry): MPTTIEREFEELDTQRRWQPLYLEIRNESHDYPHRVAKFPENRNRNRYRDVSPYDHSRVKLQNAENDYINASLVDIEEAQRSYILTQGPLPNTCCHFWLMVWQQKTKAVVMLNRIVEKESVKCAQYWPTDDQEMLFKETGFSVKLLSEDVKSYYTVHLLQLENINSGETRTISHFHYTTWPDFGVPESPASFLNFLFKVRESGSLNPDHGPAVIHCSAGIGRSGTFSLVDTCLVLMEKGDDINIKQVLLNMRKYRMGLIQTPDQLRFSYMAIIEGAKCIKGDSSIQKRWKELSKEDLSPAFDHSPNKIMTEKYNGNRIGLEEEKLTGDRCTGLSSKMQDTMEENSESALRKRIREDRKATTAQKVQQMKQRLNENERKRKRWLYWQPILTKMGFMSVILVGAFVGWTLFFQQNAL
# Homo sapiens = organism: Homo sapiens; experiment: Selectivity index, ratio of IC50 for inhibition of recombinant human TC-PTP (1 to 314 residues) expressed in baculovirus infected insect cells to IC50 for inhibition of N-terminal His-tagged recombinant human PTP1B expressed in Escherichia coli
# Mus musculus [8] = experiment: Antidiabetic activity against C57BL/Ks db/db mouse assessed as redcution in fasting blood glucose level at 1 umol/kg administered subcutaneously and measured immediately by glucometer analysis (reference value: 19.0 +/- 2.7 […]); type: functional; conditions: dose 1 µmol/kg; route sc
# Mus musculus [9] = experiment: Antidiabetic activity against C57BL/Ks db/db mouse assessed as redcution in fasting blood glucose level at 1 umol/kg, sc administered once a week and measured on day 8 by glucometer analysis (reference value: 27.7 +/- 3.7 […]); type: functional; conditions: dose 1 µmol/kg, time 8 day
# Mus musculus [10] = experiment: Antidiabetic activity against C57BL/Ks db/db mouse assessed as redcution in fasting blood glucose level at 1 umol/kg, sc administered once a week and measured on day 15 by glucometer analysis (reference value: 27.3 +/- 2.4 […]); type: functional; conditions: dose 1 µmol/kg, time 15 day
# Mus musculus [11] = experiment: Antidiabetic activity against C57BL/Ks db/db mouse assessed as redcution in fasting blood glucose level at 1 umol/kg, sc administered once a week and measured on day 22 by glucometer analysis (reference value: 27.4 +/- 1.8 […]); type: functional; conditions: dose 1 µmol/kg, time 22 day
# Mus musculus [12] = experiment: Antidiabetic activity against C57BL/Ks db/db mouse assessed as redcution in fasting blood glucose level at 1 umol/kg, sc administered once a week and measured on day 24 by glucometer analysis (reference value: 30.2 +/- 3.2 […]); type: functional; conditions: dose 1 µmol/kg, time 24 day
# Mus musculus [13] = experiment: Antidiabetic activity against C57BL/Ks db/db mouse assessed as redcution in fasting blood glucose level at 1 umol/kg, sc administered once a week and measured on day 26 by glucometer analysis (reference value: 31.4 +/- 2.2 […]); type: functional; conditions: dose 1 µmol/kg, time 26 day
# Mus musculus [14] = experiment: Antidiabetic activity against C57BL/Ks db/db mouse assessed as redcution in fasting blood glucose level at 1 umol/kg, sc administered once a week and measured on day 28 by glucometer analysis (reference value: 32.4 +/- 1.1 […]); type: functional; conditions: dose 1 µmol/kg, time 28 day
# Mus musculus [15] = experiment: Antidiabetic activity against over-night fasted C57BL/ks db/db mouse assessed as suppression of increased blood glucose concentration at 1 uM/kg, sc pretreated with compound for 4 weeks followed by oral glucose stimulation and measured upto 120 mins by oral glucose tolerance test; type: functional, organism-based; conditions: time 40440.0 min
# Mus musculus [16] = experiment: Antidiabetic activity against over-night fasted C57BL/ks db/db mouse assessed as suppression of increased blood glucose concentration at 1 uM/kg, sc pretreated with compound for 4 weeks followed by insulin stimulation and measured for 90 mins by insulin tolerance test; type: functional, organism-based; conditions: time 40410.0 min
# Mus musculus [17] = experiment: Antidiabetic activity against sc dosed C57BL/Ks db/db mouse assessed as reduction in serum insulin level at 1 umol/kg by ELISA analysis; type: functional, organism-based; conditions: dose 1.0 µmol/kg
# Mus musculus [18] = experiment: Antidiabetic activity against sc dosed C57BL/Ks db/db mouse assessed as reduction in C-peptide level at 1 umol/kg by ELISA analysis; type: functional, organism-based; conditions: dose 1.0 µmol/kg
# Mus musculus [19] = experiment: Antidiabetic activity against sc dosed C57BL/Ks db/db mouse assessed as reduction in glucagon level at 1 umol/kg by ELISA analysis; type: functional, organism-based; conditions: dose 1.0 µmol/kg
Compound,inhibition [1] [%],IC50 [2] [nM],half-life (Proteinase K) [min],half-life (Pepsin) [min],half-life (chymotrypsin [3]) [min],half-life (carboxypeptidase A) [min],fold change (FC) [4],fold change (FC) [5],fold change (FC) (Chymotrypsin [6]),fold change (FC) (Carboxypeptidase A1),other results
CCCCCCCCCCCCCCCC(=O)N[C@H](C(=O)N[C@@H](C)C(=O)N[C@@H](CCC(N)=O)C(=O)N[C@@H](CCC(=O)O)C(=O)N[C@@H](CC(C)C)C(=O)N[C@@H](CCCNC(=N)N)C(=O)N[C@@H](CCCNC(=N)N)C(=O)N[C@H](C(=O)NCC(=O)N[C@@H](CC(=O)O)C(=O)N[C@@H](CCC(=O)O)C(=O)N[C@@H](Cc1ccccc1)C(=O)O)[C@@H](C)CC)[C@@H](C)CC (Palmitoyl-IAQELRRIGDEF-OH),> 50,960,169,162,33.6,191,56.4,122.7,13,99.7,
CCCCCCCCCCCCCCCCCC(=O)N[C@H](C(=O)N[C@@H](C)C(=O)N[C@@H](CCC(N)=O)C(=O)N[C@@H](CCC(=O)O)C(=O)N[C@@H](CC(C)C)C(=O)N[C@@H](CCCNC(=N)N)C(=O)NC(CCCNC(=N)N)C(=O)N[C@H](C(=O)NCC(=O)N[C@@H](CC(=O)O)C(=O)N[C@@H](CCC(=O)O)C(=O)N[C@@H](Cc1ccccc1)C(=O)O)[C@@H](C)CC)[C@@H](C)CC (some centres undefined) (Stearoyl-IAQELR[ξR]IGDEF-OH),> 50,120,85.8,442,440,1050,28.6,334.5,170.5,549.1,IC50 [7]: 13.6 µM; Ratio IC50 (Homo sapiens): 113; Fasting blood glucose level (Mus musculus [8]): 20.4 mmol/L; Fasting blood glucose level (Mus musculus [9]): 11.8 mmol/L; Fasting blood glucose (Mus musculus [10]): 12.8 mmol/L; Fasting blood glucose level (Mus musculus [11]): 15.6 mmol/L; Fasting blood glucose level (Mus musculus [12]): 18.1 mmol/L; Fasting blood glucose level (Mus musculus [13]): 16.3 mmol/L; Fasting blood glucose level (Mus musculus [14]): 19.8 mmol/L; Activity (Mus musculus [15]): Active; Activity (Mus musculus [16]): Active; Activity (Mus musculus [17]): Active; Activity (Mus musculus [18]): Active; Activity (Mus musculus [19]): Active
